Assay results: patent US8785452B2, “Anti-infective compounds” (priority 2008, dated 2014)
≈ marks a conversion by molar mass, not a printed value. Read-outs that look alike come from different tables or passages of the source.

Columns and labels:
[1] = system: M. tuberculosis H37Rv-GFP; assay: microbe, parasite or virus in culture; assay type: cell-based, Mycobacterium tuberculosis; conditions: for inhibition at 0.2 µM / inhibition at 2 µM / inhibition at 20 µM: Macrophage; for inhibition at 0.2 µM: read-out: QIM Confirm % Inhibition 0.2 uM; for inhibition at 2 µM: read-out: QIM Confirm % Inhibition 2 uM
[2] = system: M. tuberculosis H37Rv-GFP; assay: microbe, parasite or virus in culture; assay type: cell-based; conditions: Mycobacterium tuberculosis; for inhibition at 0.2 µM: read-out: QUM Confirm % Inhibition 0.2 uM; for inhibition at 2 µM: read-out: QUM Confirm % Inhibition 2 uM; for inhibition at 20 µM: read-out: QUM Confirm % Inhibition 20 uM
Raw264.7 cells = assay: Cell number (CellNb) from image analysis of the phenotypic cell-based assay
[3] = Mycobacterium tuberculosis, H37RV, confirmation, 0.2 uM, intracellular
[4] = Mycobacterium tuberculosis, H37RV, confirmation, 2 uM, intracellular
[5] = Mycobacterium tuberculosis, H37RV, confirmation, 20 uM, read-out: QIM Confirm % Inhibition 20 uM
[6] = Mycobacterium tuberculosis, H37RV, primary screen, 20 μM, read-out: Primary QIM % Inhibition
[7] = Mycobacterium tuberculosis, H37RV, read-out: Primary QIM % Inhibition
[8] = Mycobacterium tuberculosis, H37RV
[9] = Mycobacterium tuberculosis, H37RV, read-out: QIM Confirm % Inhibition 20 uM
[10] = Mycobacterium tuberculosis, H37RV, confirmation, 20 uM, intracellular, read-out: QIM Confirm % Inhibition 20 uM
[11] = Mycobacterium tuberculosis, H37RV, primary screen, 20 μM, intracellular, read-out: Primary QIM % Inhibition

Row | SMILES | inhibition at 0.2 µM [1, 3] [%] | inhibition at 2 µM [1, 4] [%] | inhibition at 20 µM [1, 5] [%] | inhibition at 20 µM [1, 6] [%] | inhibition at 0.2 µM [2] [%] | inhibition at 2 µM [2] [%] | inhibition at 20 µM [2] [%] | QIM Confirm CellNb 0.2 uM (Raw264.7 cells; confirmation, 0.2 uM) | QIM Confirm CellNb 2 uM (Raw264.7 cells; confirmation, 2 uM) | QIM Confirm CellNb 20 uM (Raw264.7 cells; confirmation, 20 uM) | Primary QIM CellNb (Raw264.7 cells; primary screen, 20 μM) | further results
1 | NNC(=O)c1ccncc1 [INH, isoniazid, reference compound] | – | – | – | – | – | – | – | – | – | – | – | minimal inhibitory concentration (MIC) [1]: 0.16 ± 0.05 µg/mL (≈ 1.17 µM); MIC ([1]; Mycobacterium tuberculosis, H37RV, 120 h, read-out: minimal inhibitory concentration (MIC)): 0.1 µg/mL (≈ 0.729 µM); MIC ([2]; read-out: minimal inhibitory concentration (MIC)): 0.1 µg/mL (≈ 0.729 µM)
2 | O=[N+]([O-])c1cc(C(F)(F)F)cc([N+](=O)[O-])c1Sc1nc(-c2ccccc2)c[nH]1 [IPK 000 001 32] | 10.3 | 0.2 | 50.7 | 25.4 | 43.9 | 41.2 | 89.1 | 241.4 | 208.5 | 113.8 | 88.3 | –
3 | Cc1nn(-c2ccccc2)c(Cl)c1/C=N/NC(=O)c1ccccn1 [IPK 000 001 90] | 12.7 | 13.2 | 96.5 | 91.9 | 34.6 | 29.4 | 42.3 | 190.0 | 173.6 | 317.6 | 435.5 | –
4 | Cc1ccc2ccc3ccc(C)nc3c2n1 [IPK 000 002 03] | -2 | 7.7 | -12.3 | -28.5 | 32.5 | 52.4 | 69.7 | 241.4 | 92.0 | 148.0 | 77.0 | –
5 | C/C(=N\NC(N)=S)c1ccc(Cl)cc1 [IPK 000 002 17] | – | – | – | – | 56.9 | 67.4 | 49.7 | – | – | – | – | inhibition at 20 µM [1, 7]: 26.6%; inhibition at 0.2 µM [1, 8]: 54.5%; inhibition at 2 µM [1, 8]: 70.4%; inhibition at 20 µM [1, 9]: 24.5%; Primary QIM CellNb (Raw264.7 cells): 235.5; QIM Confirm CellNb 0.2 uM (Raw264.7 cells): 472.3; QIM Confirm CellNb 2 uM (Raw264.7 cells): 541.6; QIM Confirm CellNb 20 uM (Raw264.7 cells): 249.8
6 | O=C(CSc1cccs1)Nc1nccs1 [IPK 000 002 87] | 11.4 | -1.3 | 66 | 65.9 | 45.9 | 36.1 | 36.4 | 315.9 | 246.1 | 412.9 | 350.3 | –
7 | C/C(=N/NC(=O)c1ccncc1)c1cccs1 [IPK 000 003 01] | 4.7 | 77.1 | 40.4 | 88.2 | 46.4 | 82.8 | 43 | 232.6 | 457.3 | 248.3 | 373.5 | –
8 | Clc1ccc(Nc2nc3nonc3nc2Nc2ccc(Cl)c(Cl)c2)cc1Cl [IPK 000 003 89] | 20.1 | 86.6 | 84.6 | 27.7 | 44 | 76.5 | 67 | 265.3 | 200.6 | 103.0 | 72.5 | –
9 | O=C(Nc1ccc(Br)cc1)c1cc([N+](=O)[O-])cc([N+](=O)[O-])c1 [IPK 000 046 92] | – | – | 93.4 | 90.2 | – | – | – | – | – | – | 303.5 | –
10 | CN(C)c1ccc(/N=N/c2ccccc2C(=O)O)cc1 [IPK 000 052 75] | – | – | 10.1 | -77.4 | – | – | – | – | – | – | 48.8 | –
11 | C=CCN1C(=O)/C(=N/NC(=O)c2ccc(F)cc2)c2ccccc21 [IPK 000 104 67] | – | – | 73.7 | 33.8 | – | – | – | – | – | – | 183.0 | –
12 | CCOC(=O)C1(O)c2ccccc2-c2ccccc21 [IPK 000 105 55] | – | – | 91.5 | 89.3 | – | – | – | – | – | – | 181.3 | –
13 | CCCCOC(=O)C1(O)c2ccccc2-c2ccccc21 [IPK 000 105 56] | – | – | 86.9 | 65.7 | – | – | – | – | – | – | 225.0 | –
14 | O=C([O-])Cc1ccccc1Nc1c(Cl)cccc1Cl.[Na+] [IPK 000 117 05] | – | – | 80.5 | 79.8 | – | – | – | – | – | – | 656.5 | –
15 | O=C(O)c1cn(C2CC2)c2cc(N3CCNCC3)c(F)cc2c1=O [IPK 000 117 14] | – | – | – | – | – | – | – | – | – | – | 546.0 | inhibition at 20 µM [1, 7]: 69.1%; inhibition at 20 µM [1, 9]: 66.5%
16 | [C-]#[N+]c1ccc(Cl)cc1C(C)S(=O)(=O)c1ccc(C)cc1 (stereo not shown) [IPK 000 126 33] | – | – | – | – | – | – | – | – | 126.8 | – | 123.3 | inhibition at 20 µM [1, 10]: 73.4%; inhibition at 20 µM [1, 11]: 80.7%
17 | CC(C)(C)c1cc(C(=O)N/N=C2\C(=O)N(Cc3ccccc3)c3ccccc32)[nH]n1 [IPK 000 138 12] | – | – | – | – | – | – | – | – | – | – | 480.8 | inhibition at 20 µM [1, 10]: 105%; inhibition at 20 µM [1, 11]: 96.8%
18 | CNCCCN1c2ccccc2CCc2ccccc21 [IPK 000 224 59] | – | – | – | – | – | – | – | – | – | – | 60.3 | inhibition at 20 µM [1, 10]: 86.2%; inhibition at 20 µM [1, 11]: 72.9%
19 | CCOc1ccc(NCC(=O)n2nc(C)cc2C)cc1 [IPK 000 234 61] | – | – | – | – | – | – | – | – | – | – | – | inhibition at 20 µM [1, 10]: -1.6%; inhibition at 20 µM [1, 11]: -61%
20 | O=C(NCCc1ccccc1)c1ccc([N+](=O)[O-])o1 [IPK 000 235 09] | – | – | – | – | – | – | – | – | – | – | – | inhibition at 20 µM [1, 10]: 36.4%; inhibition at 20 µM [1, 11]: 46.2%
